# Assay results: PMC11845477, “Exploring the principles behind antibiotics with limited resistance” (Nature Communications, 2025)
# Where a SMILES comes first, the peptide text is derived from it. Bridges are numbered along the chain shown (N, C = ends). [ ]: non-standard residue; d: D form. The star is where a group is joined. X1 = NC[C@@H](CC(=O)*)c1cccc(Cl)c1; Dab = NCC[C@H](N)C(=O)O; Dap = NC[C@H](N)C(=O)O
# Key:
# [1] = tested on: E. coli ATCC 25922 (SEN) and E. coli NCTC13846 (MDR); assay: microbe, parasite or virus in culture; assay type: cell-based, Escherichia coli; conditions: for MIC: across three biological replicates
# Method in brief: (§1)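 Cation-adj. MHB2 (not for SCH79797); 11–16-step dilution series; 5 × 10^5 cells/mL; 37 °C, shaking, 18 h; duplicates. Growth by OD600; MIC at OD600 < 0.05. Relative MIC: evolved vs ancestor.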
# [2] = tested on: K. pneumoniae ATCC 10031 (SEN) and K. pneumoniae ATCC 700603 (MDR); assay: microbe, parasite or virus in culture; assay type: cell-based, Klebsiella pneumoniae; conditions: for MIC: across three biological replicates
# Method in brief: as §1
# [3] = tested on: A. baumannii ATCC 17978 (SEN) and A. baumannii ATCC BAA-1605 (MDR); assay: microbe, parasite or virus in culture; assay type: cell-based, Acinetobacter baumannii; conditions: for MIC: across three biological replicates
# Method in brief: as §1
# [4] = tested on: P. aeruginosa ATCC BAA-3107 (SEN) and P. aeruginosa LESB58 (MDR); assay: microbe, parasite or virus in culture; assay type: cell-based, Pseudomonas aeruginosa; conditions: for MIC of ancestor: ancestor strain; for MIC: across three biological replicates
# Method in brief: as §1
# [5] = tested on: E. coli ATCC 25922 (SEN) and E. coli NCTC13846 (MDR); assay: Frequency-of-resistance (FoR) assay, relative MIC of mutants; assay type: cell-based, Escherichia coli
# Method in brief: (§2)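 Spontaneous resistant mutants selected on antibiotic agar (≈10^10 cells, 48 h, 37 °C); MICs of ten picked colonies measured by 18 h broth microdilution (OD600 < 0.05 = inhibition) and expressed as MICevolved/MICancestor.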
# [6] = tested on: A. baumannii ATCC 17978 (SEN) and A. baumannii ATCC BAA-1605 (MDR); assay: as above; assay type: cell-based, Acinetobacter baumannii
# Method in brief: as §2
# [7] = E. coli NCTC 13846 (EC-MDR), ancestor strain, sheet fig 2a
# [8] = Escherichia coli ATCC 25922 (EC-SEN)
# [9] = Escherichia coli NCTC 13846 (EC-MDR)
# [10] = Klebsiella pneumoniae ATCC 10031 (KP-SEN), ancestor strain, sheet fig 2a
# [11] = Klebsiella pneumoniae ATCC 10031 (KP-SEN)
# [12] = Klebsiella pneumoniae ATCC 700603 (KP-MDR), ancestor strain, sheet fig 2a
# [13] = Klebsiella pneumoniae ATCC 700603 (KP-MDR)
# [14] = ancestor KP-MDR (Klebsiella pneumoniae ATCC 700603)
# [15] = ancestor KP-SEN (Klebsiella pneumoniae ATCC 10031)
# [16] = Acinetobacter baumannii ATCC 17978 (AB-SEN), ancestor strain, sheet fig 2a
# [17] = Acinetobacter baumannii ATCC 17978 (AB-SEN)
# [18] = Acinetobacter baumannii ATCC BAA-1605 (AB-MDR)
# [19] = ancestor AB-SEN (Acinetobacter baumannii ATCC 17978)
# [20] = Pseudomonas aeruginosa ATCC BAA-3107 (PA-SEN)
# [21] = Pseudomonas aeruginosa LESB 58 (PA-MDR)
# [22] = E. coli NCTC 13846 (EC-MDR), evolved line 1
# [23] = E. coli NCTC 13846 (EC-MDR), evolved line 1, evolved vs ancestor
# [24] = E. coli NCTC 13846 (EC-MDR), evolved line 2
# [25] = E. coli NCTC 13846 (EC-MDR), evolved line 2, evolved vs ancestor
# [26] = E. coli NCTC 13846 (EC-MDR), evolved line 3
# [27] = E. coli NCTC 13846 (EC-MDR), evolved line 3, evolved vs ancestor
# [28] = Acinetobacter baumannii ATCC 17978 (AB-SEN), evolved line 1
# [29] = Acinetobacter baumannii ATCC 17978 (AB-SEN), evolved line 2
# [30] = Acinetobacter baumannii ATCC 17978 (AB-SEN), evolved line 3
# [31] = Acinetobacter baumannii ATCC 17978 (AB-SEN), evolved line 1 versus ancestor
# [32] = Acinetobacter baumannii ATCC 17978 (AB-SEN), evolved line 2 versus ancestor
# [33] = Acinetobacter baumannii ATCC 17978 (AB-SEN), evolved line 3 versus ancestor
smiles,measurement,setting,value
CC(C)C[C@@H]1NC(=O)[C@@H](Cc2ccccc2)NC(=O)[C@H](CCN)NC(=O)[C@@H](NC(=O)[C@H](CN)NC(=O)[C@@H](NC(=O)C[C@H](CN)c2cccc(Cl)c2)[C@@H](C)O)CCNC(=O)[C@H]([C@@H](C)O)NC(=O)[C@H](CCN)NC(=O)[C@H](CCN)NC1=O [SPR206] (X1-T[Dap][Dab][Dab][dF]L[Dab][Dab]T; lactam 3-C (inferred); N-terminus assumed),MIC of ancestor,"[1]; E. coli ATCC 25922 (EC-SEN), ancestor strain",0.25 µg/mL
same,MIC of ancestor,"[1]; E. coli ATCC 25922 (EC-SEN), ancestor strain, sheet fig 2a",0.25 µg/mL
same,MIC of ancestor,"[1]; E. coli NCTC 13846 (EC-MDR), ancestor strain",4 µg/mL
same,MIC of ancestor,[1]; [7],4 µg/mL
same,MIC,[1]; [8],0.25 µg/mL
same,MIC,[1]; [9],4 µg/mL
same,MIC of ancestor,[2]; [10],0.5 µg/mL
same,MIC,[2]; [11],0.5 µg/mL
same,MIC of ancestor,[2]; [12],0.5 µg/mL
same,MIC,[2]; [13],0.5 µg/mL
same,MIC of ancestor,[2]; [14],0.5 µg/mL
same,MIC of ancestor,[2]; [15],0.5 µg/mL
same,MIC of ancestor,"[3]; A. baumannii ATCC 17978 (AB-SEN), ancestor strain",0.125 µg/mL
same,MIC of ancestor,"[3]; A. baumannii ATCC BAA 1605 (AB-MDR), ancestor strain",0.125 µg/mL
same,MIC of ancestor,[3]; [16],0.125 µg/mL
same,MIC,[3]; [17],0.125 µg/mL
same,MIC of ancestor,"[3]; Acinetobacter baumannii ATCC BAA 1605 (AB-MDR), ancestor strain, sheet fig 2a",0.125 µg/mL
same,MIC,[3]; [18],0.125 µg/mL
same,MIC of ancestor,[3]; [19],0.125 µg/mL
same,MIC of ancestor,[4]; P. aeruginosa ATCC BAA 3107 (PA-SEN),1 µg/mL
same,MIC of ancestor,"[4]; P. aeruginosa ATCC BAA 3107 (PA-SEN), sheet fig 2a",1 µg/mL
same,MIC of ancestor,[4]; P. aeruginosa LESB 58 (PA-MDR),4 µg/mL
same,MIC of ancestor,"[4]; P. aeruginosa LESB 58 (PA-MDR), sheet fig 2a",4 µg/mL
same,MIC,[4]; [20],1 µg/mL
same,MIC,[4]; [21],4 µg/mL
same,MIC of evolved line,"[5]; E. coli ATCC 25922 (EC-SEN), evolved line 1",32 µg/mL
same,Relative MIC,"[5]; E. coli ATCC 25922 (EC-SEN), evolved line 1, evolved vs ancestor",128
same,MIC of evolved line,"[5]; E. coli ATCC 25922 (EC-SEN), evolved line 2",32 µg/mL
same,Relative MIC,"[5]; E. coli ATCC 25922 (EC-SEN), evolved line 2, evolved vs ancestor",128
same,MIC of evolved line,"[5]; E. coli ATCC 25922 (EC-SEN), evolved line 3",32 µg/mL
same,Relative MIC,"[5]; E. coli ATCC 25922 (EC-SEN), evolved line 3, evolved vs ancestor",128
same,MIC of evolved line,[5]; [22],64 µg/mL
same,Relative MIC,[5]; [23],16
same,MIC of evolved line,[5]; [24],64 µg/mL
same,Relative MIC,[5]; [25],16
same,MIC of evolved line,[5]; [26],64 µg/mL
same,Relative MIC,[5]; [27],16
same,Relative MIC,"[5]; FoR assay, Escherichia coli ATCC 25922 (EC-SEN), evolved line 1",128
same,Relative MIC,"[5]; FoR assay, Escherichia coli ATCC 25922 (EC-SEN), evolved line 2",128
same,Relative MIC,"[5]; FoR assay, Escherichia coli ATCC 25922 (EC-SEN), evolved line 3",128
same,Relative MIC,"[5]; FoR assay, Escherichia coli NCTC 13846 (EC-MDR), evolved line 1",16
same,Relative MIC,"[5]; FoR assay, Escherichia coli NCTC 13846 (EC-MDR), evolved line 2",16
same,Relative MIC,"[5]; FoR assay, Escherichia coli NCTC 13846 (EC-MDR), evolved line 3",16
same,MIC of evolved line,[6]; [28],0.125 µg/mL
same,MIC of evolved line,[6]; [29],0.125 µg/mL
same,MIC of evolved line,[6]; [30],0.125 µg/mL
same,Relative MIC,[6]; [31],1
same,Relative MIC,[6]; [32],1
same,Relative MIC,[6]; [33],1
same,MIC of evolved line,"[6]; Acinetobacter baumannii ATCC BAA 1605 (AB-MDR), evolved line 2",0.25 µg/mL
same,MIC of evolved line,"[6]; Acinetobacter baumannii ATCC BAA 1605 (AB-MDR), evolved line 1",0.25 µg/mL
same,Relative MIC,"[6]; Acinetobacter baumannii ATCC BAA 1605 (AB-MDR), evolved line 1 versus ancestor",2
same,Relative MIC,"[6]; Acinetobacter baumannii ATCC BAA 1605 (AB-MDR), evolved line 2 versus ancestor",2
same,MIC of evolved line,"[6]; Acinetobacter baumannii ATCC BAA 1605 (AB-MDR), evolved line 3",0.25 µg/mL
same,Relative MIC,"[6]; Acinetobacter baumannii ATCC BAA 1605 (AB-MDR), evolved line 3 versus ancestor",2
same,Relative MIC,"[6]; FoR assay, Acinetobacter baumannii ATCC 17978 (AB-SEN), evolved line 1",1
same,Relative MIC,"[6]; FoR assay, Acinetobacter baumannii ATCC 17978 (AB-SEN), evolved line 2",1
same,Relative MIC,"[6]; FoR assay, Acinetobacter baumannii ATCC 17978 (AB-SEN), evolved line 3",1
same,Relative MIC,"[6]; FoR assay, Acinetobacter baumannii ATCC BAA 1605 (AB-MDR), evolved line 1",2
same,Relative MIC,"[6]; FoR assay, Acinetobacter baumannii ATCC BAA 1605 (AB-MDR), evolved line 2",2
same,Relative MIC,"[6]; FoR assay, Acinetobacter baumannii ATCC BAA 1605 (AB-MDR), evolved line 3",2
C[C@@H](O)[C@H]1C(=O)N2C(C(=O)O)=C(S[C@H]3CC[S@@+]([O-])C3)S[C@H]12 [Sulopenem],MIC of ancestor,[1]; [7],0.0312 µg/mL
same,MIC,[1]; [8],0.0625 µg/mL
same,MIC,[1]; [9],0.03125 µg/mL
same,MIC of ancestor,[1]; ancestor EC-MDR (Escherichia coli NCTC 13846),0.0312 µg/mL
same,MIC of ancestor,[1]; ancestor EC-SEN (Escherichia coli ATCC 25922),0.0312 µg/mL
same,MIC of ancestor,[2]; [10],0.0312 µg/mL
same,MIC,[2]; [11],0.03125 µg/mL
same,MIC of ancestor,[2]; [12],0.5 µg/mL
same,MIC,[2]; [13],0.5 µg/mL
same,MIC of ancestor,[2]; [14],0.5 µg/mL
same,MIC of ancestor,[2]; [15],0.0312 µg/mL
same,MIC of ancestor,[3]; [16],1 µg/mL
same,MIC,[3]; [17],1 µg/mL
same,MIC,[3]; [18],32 µg/mL
same,MIC of ancestor,[3]; [19],1 µg/mL
same,MIC,[4]; [20],16 µg/mL
same,MIC,[4]; [21],>32 µg/mL
same,MIC of evolved line,[5]; [22],0.0625 µg/mL
same,Relative MIC,[5]; [23],2
same,MIC of evolved line,[5]; [24],0.0312 µg/mL
same,Relative MIC,[5]; [25],1
same,MIC of evolved line,[5]; [26],0.0312 µg/mL
same,Relative MIC,[5]; [27],1
same,MIC of evolved line,"[5]; Escherichia coli ATCC 25922 (EC-SEN), evolved line 1",0.0156 µg/mL
same,MIC of evolved line,"[5]; Escherichia coli ATCC 25922 (EC-SEN), evolved line 2",0.0156 µg/mL
same,MIC of evolved line,"[5]; Escherichia coli ATCC 25922 (EC-SEN), evolved line 3",0.0156 µg/mL
same,Relative MIC,"[5]; Escherichia coli ATCC 25922 (EC-SEN), evolved line 1 versus ancestor",1
same,Relative MIC,"[5]; Escherichia coli ATCC 25922 (EC-SEN), evolved line 2 versus ancestor",1
same,Relative MIC,"[5]; Escherichia coli ATCC 25922 (EC-SEN), evolved line 3 versus ancestor",1
same,MIC of evolved line,[6]; [28],4 µg/mL
same,MIC of evolved line,[6]; [29],4 µg/mL
same,MIC of evolved line,[6]; [30],4 µg/mL
same,Relative MIC,[6]; [31],4
same,Relative MIC,[6]; [32],4
same,Relative MIC,[6]; [33],4
